We go through two compounds from ChEMBL document CHEMBL5728597, “Tetrahydroquinoline derivatives as P2X7 receptor antagonists” (2021).

The target in this experiment is T1, P2X purinoceptor 7 (Homo sapiens, UniProt Q99572).
T1 sequence (Q99572 whole entry): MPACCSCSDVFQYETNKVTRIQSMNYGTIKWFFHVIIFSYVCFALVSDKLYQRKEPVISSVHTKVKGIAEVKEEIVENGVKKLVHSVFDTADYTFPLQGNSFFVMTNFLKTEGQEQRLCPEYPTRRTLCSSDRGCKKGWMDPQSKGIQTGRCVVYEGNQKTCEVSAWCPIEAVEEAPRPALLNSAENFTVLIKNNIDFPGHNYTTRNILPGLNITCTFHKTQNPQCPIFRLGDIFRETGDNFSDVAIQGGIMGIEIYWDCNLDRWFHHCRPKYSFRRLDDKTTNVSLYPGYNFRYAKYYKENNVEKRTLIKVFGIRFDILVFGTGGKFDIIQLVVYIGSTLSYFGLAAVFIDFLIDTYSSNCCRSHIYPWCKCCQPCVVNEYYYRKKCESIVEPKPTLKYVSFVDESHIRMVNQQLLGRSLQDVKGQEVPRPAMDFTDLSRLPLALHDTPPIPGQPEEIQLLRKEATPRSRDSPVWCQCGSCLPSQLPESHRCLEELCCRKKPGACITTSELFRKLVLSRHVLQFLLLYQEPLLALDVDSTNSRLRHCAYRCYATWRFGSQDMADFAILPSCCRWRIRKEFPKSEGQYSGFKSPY
Nature of the experiment: Pharmacological Assay: 1. […] Incubate the plate at 37° C. in 5% CO2 for 1 h.4. […] Test compounds were prepared at 100× the test concentration in DMSO by serial dilution with Biomek-FX liquid handling instrument. 33× diluted compound solutions in assay buffer were prepared in intermediate compound plate with Biomek-NX liquid handling instrument. A further 3× dilution occurred in below steps 6 and 7.6. Add 20 microL of 33× diluted compound solutions into each well and leave the plate for 10 min under the dark at room temperature.7. Measure activity by FDSS as follows:Set the assay plate on the stacker of FDSS.Start the detection of fluorescence intensity at 540 nm by 480 nm exicitation.After 30 seconds, add 20 microL of assay buffer containing 240 microM BzATP (final concentration 80 microM).

A word on the IC50: it is the concentration needed to halve the response being measured. Low values mean greater potency in that assay, high ones weaker potency in that assay.

`NC(=O)CC1CCC(C(=O)NCc2cccc(C(F)(F)F)c2Cl)c2cccnc21` (configuration not stated) registered an IC50 below 50 nM.

For `O=C(NCc1ccc(C(F)(F)F)cc1Cl)[C@]1(F)CC[C@H](O)c2ncccc21`, the IC50 is below 50 nM.
